According to patent US20180055055A1, “FOLIAR APPLICATIONS FOR CONTROLLING LEPIDOPTERAN PESTS FOR FRUITS AND/OR FRUIT TREES” (priority 2016, published 2018):

System: Grapholyta molesta
Assay: Open field trial, foliar application on peach trees against Grapholyta molesta
Format: in vivo
Details: timing ABC; for Alive larvae per 100 fruit / Deep holes per 100 fruit: 12 days after final application; for % control on alive larvae / % control on deep holes: Abbott equation
Text: Another open field trial is set up to evaluate the efficacy and selectivity of Compound A against Grapholyta molesta for peach trees (Amiga variety). The trial is designed as randomized complete block with four replications. Compound A is applied only twice (Timing A, and B), while all other treatments are applied three times (Timing A, B and C) where each application is about one week apart.
Treatments are sprayed using a mist spray multi plot equipment, designed for efficacy trials with four independent series of 8 nozzles (ALBUZ, ATR 80 Yellow) and calibrated to apply a spray volume of 1200 L/ha at a pressure of 450 Kpa. The applications target the egg lay stage of second generation at the crop growth stage of BBCH 73-75, 75-76 and 76-77 respectively for timing A, B and C. At twelve days after the final application, the efficacy assessment is carried out on 100 fruits/plot assessing the number of damaged fruits (distinct as superficial stings and deep holes) and the number of alive larvae.
Results are shown in Table 3, where data assessed are also transformed to a percentage of control using Abbott equation. Data are examined according to the Bartlett's test for homogeneity of variance. The treatment means of the assessment data are calculated and compared using Tukey's HSD test (p=0.05). In the untreated there are 18 alive larvae found in 100 fruits/plot, which represented a high infestation situation

[1] = 680 g ai/ha, first listed formulation (Table 3 order: (1) CS 200 g ai/L)
[2] = 680 g ai/ha, second listed formulation (Table 3 order: (2) EC 225 g ai/L)
[3] = 850 ai/ha, second listed formulation (Table 3 order: (2) EC 225 g ai/L)
[4] = 850 g ai/ha, first listed formulation (Table 3 order: (1) CS 200 g ai/L)
[5] = 1020 g ai/ha, first listed formulation (Table 3 order: (1) CS 200 g ai/L)
[6] = 1020 g ai/ha, second listed formulation (Table 3 order: (2) EC 225 g ai/L)

CCOP(=S)(OCC)Oc1nc(Cl)c(Cl)cc1Cl [Chlorpyriphos-Ethyl]
Alive larvae per 100 fruit (1080 g ai/ha, EC 480 g ai/L): 0.0 b per 100 fruit | Deep holes per 100 fruit (1080 g ai/ha, EC 480 g ai/L): 0 b per 100 fruit | % control on alive larvae (1080 g ai/ha, EC 480 g ai/L): 100.0 a % | % control on deep holes (1080 g ai/ha, EC 480 g ai/L): 100.0 a %

COP(=S)(OC)Oc1nc(Cl)c(Cl)cc1Cl [Chlorpyriphos-Methyl]
Alive larvae per 100 fruit [1]: 0.0 b per 100 fruit | Deep holes per 100 fruit [1]: 3 b per 100 fruit | Alive larvae per 100 fruit [2]: 0.0 b per 100 fruit | Deep holes per 100 fruit [2]: 3 b per 100 fruit | % control on alive larvae [1]: 100.0 a % | % control on deep holes [1]: 81.3 c % | % control on alive larvae [2]: 100.0 a % | % control on deep holes [2]: 85.8 bc % | Alive larvae per 100 fruit [3]: 0.0 b per 100 fruit | Deep holes per 100 fruit [3]: 2 b per 100 fruit | % control on alive larvae [3]: 100.0 a % | % control on deep holes [3]: 93.0 bc % | Alive larvae per 100 fruit [4]: 0.0 b per 100 fruit | Deep holes per 100 fruit [4]: 2 b per 100 fruit | % control on alive larvae [4]: 100.0 a % | % control on deep holes [4]: 93.4 abc % | Alive larvae per 100 fruit [5]: 0.0 b per 100 fruit | Deep holes per 100 fruit [5]: 0 b per 100 fruit | Alive larvae per 100 fruit [6]: 0.0 b per 100 fruit | Deep holes per 100 fruit [6]: 0 b per 100 fruit | % control on alive larvae [5]: 100.0 a % | % control on deep holes [5]: 100.0 a % | % control on alive larvae [6]: 100.0 a % | % control on deep holes [6]: 100.0 a %
